Results published in publication PMC4861708 (Frontiers in Cell and Developmental Biology, 2016).
Converted amounts (≈) assume the structure as drawn. Where a SMILES comes first, the peptide text is derived from it. [ ]: non-standard residue; d: D form. The star is where a group is joined. Orn(α-tetramethylguanidino) = CN(C)C(=N[C@@H](CCCN)C(=O)*)N(C)C; Orn = NCCC[C@H](N)C(=O)O

Legend:
[1] = tested on: P. aeruginosa DSM 1117 (ATCC 27853); assay type: cell-based, Pseudomonas aeruginosa; conditions: DSM 1117, 24 h
Protocol: (§1) MICs of P. aeruginosa strains DSM 1117 (ATCC 27853), DSM 3227 (ATCC 19429), and DSM 9644 were determined in a microdilution broth assay using 50 or 100% MHB (11.5 and 23 g/L MHB, respectively) whereas MICs of E. coli DSM 1103 (ATCC 25922) and K. pneumoniae DSM 681 (ATCC 10031) were determined in TSB (30 g/L TSB). Peptides (1 g/L in water) were serially two-fold diluted in a 96-well microtiter plate (PS, sterile, flat bottom) in 50 μL of the corresponding medium to final concentrations of 512–4 μg/mL. Bacteria were grown in nutrient broth overnight and diluted to a cell concentration of 1.5 × 10^7 cells/mL in the corresponding medium. Cell densities were determined by using the McFarland standard as reference. An aliquot (50 μL) of the cell culture was added to each well and incubated (37°C, 24 h). The OD595 was determined in a SpectraMax 340PC (Molecular Devices, Sunnyvale, USA). Additionally, MIC values were also determined for high bacteria densities (5 × 10^8 cells/mL) corresponding to the conditions used for TEM, as described above.

[2] = tested on: E. coli DSM 1103 (ATCC 25922); assay type: cell-based, Escherichia coli; conditions: DSM 1103, 24 h
Protocol: as §1

[3] = tested on: K. pneumoniae DSM 681 (ATCC 10031); assay type: cell-based, Klebsiella pneumoniae; conditions: DSM 681, 24 h
Protocol: as §1

[4] = target: T1, P. aeruginosa elastase (Pseudomonas aeruginosa, UniProt P14756); experiment: Elastase assay (proteolytic stability); assay type: in vitro ADME; conditions: after 6 h, elastase 12 units/mL, pH 8.3, 37°C
T1 construct: purchased Merck (Darmstadt, Germany)
Protocol: A stock solution of P. aeruginosa elastase (0.26 U/μL) was prepared in Tris-HCl (5 mmol/L, pH 8.3) and stored at −80°C. Peptides (0.5 g/L in 5 mmol/L Tris-HCl, pH 8.3) were incubated with elastase (0.012 U/μL) at 37°C under constant shaking (450 rpm) for 0, 0.5, 2, 4, and 6 h. Aliquots (10.5 μL) were precipitated with a mixture of acetonitrile and ethanol (1:1 v/v) containing 0.1% TFA (21 μL), centrifuged, the supernatant transferred into a new tube, and dried in vacuum. Samples were dissolved in aqueous acetonitrile (3% v/v) containing TFA (0.1% v/v) and analyzed by RP-HPLC using the conditions described above.

[5] = tested on: P. aeruginosa DSM 1117; experiment: Transmission electron microscopy, morphological changes; assay type: cell-based, Pseudomonas aeruginosa; conditions: 1 h
Protocol: Peptide-bacteria mixtures were fixed (2% glutaraldehyde, 5 mmol/L CaCl2, 10 mmol/L MgCl2 in 0.1 mol/L sodium cacodylate buffer, pH 7.4) overnight at 4°C. […] Samples were rinsed with distilled water (5 × 10 min), incubated with aqueous uranylacetate (0.5% w/v) for 1 h at 4°C, washed with distilled water (3 × 10 min), and embedded in Epon. The hardened blocks were sectioned (50 nm) on a UCT ultramicrotome (Leica, Vienna, Austria), stained with uranyl acetate and lead citrate on an AC20 system (Leica), and visualized at a Tecnai 12 electron microscope (FEI, Eindhoven, The Netherlands) at 80 kV. Morphological effects were quantified on average for 25 cells per condition.

T1 sequence (P14756 198-498): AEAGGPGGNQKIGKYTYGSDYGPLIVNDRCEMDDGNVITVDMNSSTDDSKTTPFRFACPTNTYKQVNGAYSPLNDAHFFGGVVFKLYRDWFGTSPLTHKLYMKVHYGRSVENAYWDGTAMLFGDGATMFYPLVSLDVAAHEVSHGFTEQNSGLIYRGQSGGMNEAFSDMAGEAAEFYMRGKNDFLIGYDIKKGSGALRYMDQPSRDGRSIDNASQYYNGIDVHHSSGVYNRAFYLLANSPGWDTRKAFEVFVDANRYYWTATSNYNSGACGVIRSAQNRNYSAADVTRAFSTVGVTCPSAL

Compound: CC[C@H](C)[C@H](NC(=O)[C@H](Cc1ccc(O)cc1)NC(=O)[C@@H](NC(=O)[C@@H]1CCCN1C(=O)[C@H](CCCNC(=N)N)NC(=O)[C@H](CC(N)=O)NC(=O)[C@H](CC(N)=O)NC(=O)[C@H](CCCN)N=C(N(C)C)N(C)C)C(C)C)C(=O)N1CCC[C@H]1C(=O)N[C@@H](CCCNC(=N)N)C(=O)N1CCC[C@H]1C(=O)N[C@@H](CCCNC(=N)N)C(=O)N1CCC[C@H]1C(=O)N1CCC[C@H]1C(=O)N[C@@H](Cc1c[nH]cn1)C(=O)N1CCC[C@H]1C(=O)N[C@@H](CCCNC(=N)N)C(=O)N[C@@H](CC(C)C)C(=O)O [Api137, gu-ONNRPVYIPRPRPPHPRL-OH, reference compound] ({Orn(α-tetramethylguanidino)}-NNRPVYIPRPRPPHPRL-OH)
- MIC P. aeruginosa DSM 1117, high inoculum [1]: 128 µg/mL (≈ 55.9 µM)
- MIC E. coli ATCC 25922 [2]: 2 µg/mL (≈ 0.873 µM)
- MIC E. coli DSM 1103, high inoculum [2]: 32 µg/mL (≈ 14 µM)
- MIC K. pneumoniae DSM 681 [3]: 16 µg/mL (≈ 6.98 µM)
- Peptide remaining with elastase [4]: fully recovered
- Cells spongy ([5]; 32 µg/mL): 0%
- DNA/ribosomes relocalization: +++, extremely relocalized ([5]; 32 µg/mL): 0%
- DNA/ribosomes relocalization: +, starting ([5]; 32 µg/mL): 43%
- DNA/ribosomes relocalization: -, no ([5]; 32 µg/mL): 40%
- Membrane: b, broken ([5]; 32 µg/mL): 0%
- Membrane: i, intact ([5]; 32 µg/mL): 100%
- Membrane: r, ruptured ([5]; 32 µg/mL): 0%
- Ribosome clustering: +++, extremely clustered ([5]; 32 µg/mL): 0%
- Ribosome clustering: ++, clustered ([5]; 32 µg/mL): 0%
- Ribosome clustering: +, starting ([5]; 32 µg/mL): 63%
- Ribosome clustering: -, no ([5]; 32 µg/mL): 37%
- Vesicle release ([5]; 32 µg/mL): 43%
- dissociated Fragments: ++, long and thin ([5]; 32 µg/mL): 0%
- dissociated Fragments: -, no ([5]; 32 µg/mL): 87%
- dissociated Fragments: LV, large vesicles ([5]; 32 µg/mL): 0%
- Cells spongy ([5]; 128 µg/mL): 0%
- DNA/ribosomes relocalization: +++, extremely relocalized ([5]; 128 µg/mL): 0%
- DNA/ribosomes relocalization: +, starting ([5]; 128 µg/mL): 37%
- DNA/ribosomes relocalization: -, no ([5]; 128 µg/mL): 47%
- Membrane: b, broken ([5]; 128 µg/mL): 0%
- Membrane: i, intact ([5]; 128 µg/mL): 100%
- Membrane: r, ruptured ([5]; 128 µg/mL): 0%
- Ribosome clustering: +++, extremely clustered ([5]; 128 µg/mL): 0%
- Ribosome clustering: ++, clustered ([5]; 128 µg/mL): 0%
- Ribosome clustering: +, starting ([5]; 128 µg/mL): 57%
- Ribosome clustering: -, no ([5]; 128 µg/mL): 43%
- Vesicle release ([5]; 128 µg/mL): 47%
- dissociated Fragments: ++, long and thin ([5]; 128 µg/mL): 3%
- dissociated Fragments: +, small and thin ([5]; 128 µg/mL): 10%
- dissociated Fragments: -, no ([5]; 128 µg/mL): 87%
- dissociated Fragments: LV, large vesicles ([5]; 128 µg/mL): 0%
- Cells spongy ([5]; 512 µg/mL): 0%
- DNA/ribosomes relocalization: +++, extremely relocalized ([5]; 512 µg/mL): 0%
- DNA/ribosomes relocalization: +, starting ([5]; 512 µg/mL): 40%
- DNA/ribosomes relocalization: -, no ([5]; 512 µg/mL): 47%
- Membrane: b, broken ([5]; 512 µg/mL): 0%
- Membrane: i, intact ([5]; 512 µg/mL): 100%
- Membrane: r, ruptured ([5]; 512 µg/mL): 0%
- Ribosome clustering: +++, extremely clustered ([5]; 512 µg/mL): 0%
- Ribosome clustering: ++, clustered ([5]; 512 µg/mL): 0%
- Ribosome clustering: +, starting ([5]; 512 µg/mL): 30%
- Ribosome clustering: -, no ([5]; 512 µg/mL): 70%
- Vesicle release ([5]; 512 µg/mL): 37%
- dissociated Fragments: ++, long and thin ([5]; 512 µg/mL): 3%
- dissociated Fragments: +, small and thin ([5]; 512 µg/mL): 0%
- dissociated Fragments: -, no ([5]; 512 µg/mL): 97%
- dissociated Fragments: LV, large vesicles ([5]; 512 µg/mL): 0%

Compound: CC(C)C[C@H](NC(=O)[C@H](CCCNC(=N)N)NC(=O)[C@@H]1CCCN1C(=O)[C@H](Cc1c[nH]cn1)NC(=O)[C@@H]1CCCN1C(=O)[C@@H]1CCCN1C(=O)[C@H](CCCNC(=N)N)NC(=O)[C@@H]1CCCN1C(=O)[C@H](CCCNC(=N)N)NC(=O)[C@@H]1CCCN1C(=O)[C@H](CCCN)NC(=O)[C@H](Cc1ccc(O)cc1)NC(=O)[C@@H](NC(=O)[C@@H]1CCCN1C(=O)[C@H](CCCNC(=N)N)NC(=O)[C@H](CCCN)NC(=O)[C@H](Cc1c[nH]c2ccccc12)NC(=O)[C@H](CCCN)NC(=O)[C@H](Cc1c[nH]c2ccccc12)NC(=O)[C@H](CCCN)NC(=O)[C@H](Cc1c[nH]c2ccccc12)NC(=O)[C@H](CCCN)N=C(N(C)C)N(C)C)C(C)C)C(=O)O [Api794, gu-O(WO)3RPVYOPRPRPPHPRL-OH] ({Orn(α-tetramethylguanidino)}-W[Orn]W[Orn]W[Orn]RPVY[Orn]PRPRPPHPRL-OH)
- MIC P. aeruginosa DSM 1117, high inoculum [1]: 64 µg/mL (≈ 21.6 µM)
- MIC E. coli ATCC 25922 [2]: 16 µg/mL (≈ 5.4 µM)
- MIC E. coli DSM 1103, high inoculum [2]: 64 µg/mL (≈ 21.6 µM)
- MIC K. pneumoniae DSM 681 [3]: 32 µg/mL (≈ 10.8 µM)
- remaining at 6 h, 0.5 g/L ([4]; Pseudomonas aeruginosa, isolated enzyme elastase, read-out: Peptide remaining with elastase): 79 ± 6%
- Cells spongy ([5]; 16 µg/mL): 0%
- DNA/ribosomes relocalization: +++, extremely relocalized ([5]; 16 µg/mL): 0%
- DNA/ribosomes relocalization: ++, relocalized ([5]; 16 µg/mL): 23%
- DNA/ribosomes relocalization: +, starting ([5]; 16 µg/mL): 37%
- DNA/ribosomes relocalization: -, no ([5]; 16 µg/mL): 40%
- Membrane: b, broken ([5]; 16 µg/mL): 0%
- Membrane: i, intact ([5]; 16 µg/mL): 100%
- Membrane: r, ruptured ([5]; 16 µg/mL): 0%
- Ribosome clustering: +++, extremely clustered ([5]; 16 µg/mL): 0%
- Ribosome clustering: ++, clustered ([5]; 16 µg/mL): 0%
- Ribosome clustering: +, starting ([5]; 16 µg/mL): 80%
- Ribosome clustering: -, no ([5]; 16 µg/mL): 20%
- Vesicle release ([5]; 16 µg/mL): 87%
- dissociated Fragments: +, small and thin ([5]; 16 µg/mL): 10%
- dissociated Fragments: -, no ([5]; 16 µg/mL): 77%
- dissociated Fragments: LV, large vesicles ([5]; 16 µg/mL): 0%
- Cells spongy ([5]; 64 µg/mL): 0%
- DNA/ribosomes relocalization: +++, extremely relocalized ([5]; 64 µg/mL): 83%
- DNA/ribosomes relocalization: ++, relocalized ([5]; 64 µg/mL): 10%
- DNA/ribosomes relocalization: +, starting ([5]; 64 µg/mL): 3%
- DNA/ribosomes relocalization: -, no ([5]; 64 µg/mL): 3%
- Membrane: b, broken ([5]; 64 µg/mL): 80%
- Membrane: i, intact ([5]; 64 µg/mL): 20%
- Membrane: r, ruptured ([5]; 64 µg/mL): 47%
- Ribosome clustering: +++, extremely clustered ([5]; 64 µg/mL): 73%
- Ribosome clustering: ++, clustered ([5]; 64 µg/mL): 10%
- Ribosome clustering: -, no ([5]; 64 µg/mL): 3%
- Vesicle release ([5]; 64 µg/mL): 20%
- dissociated Fragments: ++, long and thin ([5]; 64 µg/mL): 63%
- dissociated Fragments: +, small and thin ([5]; 64 µg/mL): 20%
- dissociated Fragments: LV, large vesicles ([5]; 64 µg/mL): 30%
- Cells spongy ([5]; 256 µg/mL): 80%
- DNA/ribosomes relocalization: +++, extremely relocalized ([5]; 256 µg/mL): 100%
- DNA/ribosomes relocalization: ++, relocalized ([5]; 256 µg/mL): 0%
- DNA/ribosomes relocalization: +, starting ([5]; 256 µg/mL): 0%
- DNA/ribosomes relocalization: -, no ([5]; 256 µg/mL): 0%
- Membrane: b, broken ([5]; 256 µg/mL): 67%
- Membrane: i, intact ([5]; 256 µg/mL): 34%
- Membrane: r, ruptured ([5]; 256 µg/mL): 67%
- Ribosome clustering: +++, extremely clustered ([5]; 256 µg/mL): 100%
- Ribosome clustering: ++, clustered ([5]; 256 µg/mL): 0%
- Ribosome clustering: +, starting ([5]; 256 µg/mL): 0%
- Ribosome clustering: -, no ([5]; 256 µg/mL): 0%
- Vesicle release ([5]; 256 µg/mL): 3%
- dissociated Fragments: ++, long and thin ([5]; 256 µg/mL): 80%
- dissociated Fragments: -, no ([5]; 256 µg/mL): 7%
- dissociated Fragments: LV, large vesicles ([5]; 256 µg/mL): 93%
- Cells spongy ([5]; 512 µg/mL): 87%
- DNA/ribosomes relocalization: +++, extremely relocalized ([5]; 512 µg/mL): 100%
- DNA/ribosomes relocalization: ++, relocalized ([5]; 512 µg/mL): 0%
- DNA/ribosomes relocalization: +, starting ([5]; 512 µg/mL): 0%
- DNA/ribosomes relocalization: -, no ([5]; 512 µg/mL): 0%
- Ribosome clustering: +++, extremely clustered ([5]; 512 µg/mL): 93%
- Ribosome clustering: ++, clustered ([5]; 512 µg/mL): 7%
- Ribosome clustering: +, starting ([5]; 512 µg/mL): 0%
- Ribosome clustering: -, no ([5]; 512 µg/mL): 0%
- Vesicle release ([5]; 512 µg/mL): 0%
- dissociated Fragments: ++, long and thin ([5]; 512 µg/mL): 60%
- dissociated Fragments: +, small and thin ([5]; 512 µg/mL): 0%
- dissociated Fragments: -, no ([5]; 512 µg/mL): 40%
- dissociated Fragments: LV, large vesicles ([5]; 512 µg/mL): 97%
